What all share (assay): Kinase selectivity, DiscoverX scanMAX Kinase assay panel (% control)
What all share (type): binding

Experiment [1] addresses T1, kinases of the scanMAX Kinase assay panel (Homo sapiens, UniProt P07332).
T1 construct: purchased DiscoverX Co. (contract measurement) scanMAX Kinase assay panel
Particulars: FES; 1 uM. Summed up:
(§1)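 Percent of control computed as (compound − positive control)/(negative control − positive control) × 100, DMSO defining 100% and positive control 0%. Each panel kinase exposed to 1 uM compound; values under 35% taken to mean the compound acts on that kinase.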

Experiment [2] has as its target T2, kinases of the scanMAX Kinase assay panel (Homo sapiens, UniProt P36896).
T2 construct: purchased DiscoverX Co. (contract measurement) scanMAX Kinase assay panel
T2 sequence (P36896 24-505): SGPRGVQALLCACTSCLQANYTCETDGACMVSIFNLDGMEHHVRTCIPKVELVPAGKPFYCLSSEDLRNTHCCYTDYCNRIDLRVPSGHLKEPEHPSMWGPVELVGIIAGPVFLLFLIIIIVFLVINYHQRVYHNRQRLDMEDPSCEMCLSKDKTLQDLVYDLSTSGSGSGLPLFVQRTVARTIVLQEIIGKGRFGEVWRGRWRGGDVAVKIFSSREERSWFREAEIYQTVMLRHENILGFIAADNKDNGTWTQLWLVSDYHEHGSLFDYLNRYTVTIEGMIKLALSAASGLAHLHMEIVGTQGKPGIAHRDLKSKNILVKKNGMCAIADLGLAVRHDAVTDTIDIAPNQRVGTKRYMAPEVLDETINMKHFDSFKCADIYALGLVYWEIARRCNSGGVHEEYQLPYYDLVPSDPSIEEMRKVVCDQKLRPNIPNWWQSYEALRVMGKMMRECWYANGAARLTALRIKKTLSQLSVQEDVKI
Particulars: ACVR1B; 1 uM. In outline:
as §1

Experiment [3] concerns the target T3, kinases of the scanMAX Kinase assay panel (Homo sapiens, UniProt P41743).
T3 construct: purchased DiscoverX Co. (contract measurement) scanMAX Kinase assay panel
T3 sequence (P41743 1-596): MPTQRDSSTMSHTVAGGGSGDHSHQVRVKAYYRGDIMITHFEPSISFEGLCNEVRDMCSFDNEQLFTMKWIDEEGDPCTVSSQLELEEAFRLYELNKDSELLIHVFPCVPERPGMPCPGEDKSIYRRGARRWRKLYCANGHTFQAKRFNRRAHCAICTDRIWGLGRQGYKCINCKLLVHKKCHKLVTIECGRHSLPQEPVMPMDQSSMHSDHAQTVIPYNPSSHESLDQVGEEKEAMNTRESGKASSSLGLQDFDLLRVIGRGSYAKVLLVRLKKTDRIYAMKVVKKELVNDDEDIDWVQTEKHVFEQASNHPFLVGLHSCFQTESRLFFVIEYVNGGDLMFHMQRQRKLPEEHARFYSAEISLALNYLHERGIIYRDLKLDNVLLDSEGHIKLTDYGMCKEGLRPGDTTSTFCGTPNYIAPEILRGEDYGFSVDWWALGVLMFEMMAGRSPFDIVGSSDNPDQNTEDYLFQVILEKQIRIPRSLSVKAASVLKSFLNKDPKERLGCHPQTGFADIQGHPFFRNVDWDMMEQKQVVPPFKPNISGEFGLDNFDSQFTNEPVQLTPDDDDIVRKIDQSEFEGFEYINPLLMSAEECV
Conditions: PRKCI; 1 uM. Summed up:
as §1

Experiment [4] addresses T4, kinases of the scanMAX Kinase assay panel (Homo sapiens, UniProt Q99558).
T4 construct: purchased DiscoverX Co. (contract measurement) scanMAX Kinase assay panel
Conditions: NIK; 1 uM. In outline: as §1

Experiment [5] deals with T5, kinases of the scanMAX Kinase assay panel (Homo sapiens, UniProt Q9H2K8).
T5 construct: purchased DiscoverX Co. (contract measurement) scanMAX Kinase assay panel
T5 sequence (Q9H2K8 1-898): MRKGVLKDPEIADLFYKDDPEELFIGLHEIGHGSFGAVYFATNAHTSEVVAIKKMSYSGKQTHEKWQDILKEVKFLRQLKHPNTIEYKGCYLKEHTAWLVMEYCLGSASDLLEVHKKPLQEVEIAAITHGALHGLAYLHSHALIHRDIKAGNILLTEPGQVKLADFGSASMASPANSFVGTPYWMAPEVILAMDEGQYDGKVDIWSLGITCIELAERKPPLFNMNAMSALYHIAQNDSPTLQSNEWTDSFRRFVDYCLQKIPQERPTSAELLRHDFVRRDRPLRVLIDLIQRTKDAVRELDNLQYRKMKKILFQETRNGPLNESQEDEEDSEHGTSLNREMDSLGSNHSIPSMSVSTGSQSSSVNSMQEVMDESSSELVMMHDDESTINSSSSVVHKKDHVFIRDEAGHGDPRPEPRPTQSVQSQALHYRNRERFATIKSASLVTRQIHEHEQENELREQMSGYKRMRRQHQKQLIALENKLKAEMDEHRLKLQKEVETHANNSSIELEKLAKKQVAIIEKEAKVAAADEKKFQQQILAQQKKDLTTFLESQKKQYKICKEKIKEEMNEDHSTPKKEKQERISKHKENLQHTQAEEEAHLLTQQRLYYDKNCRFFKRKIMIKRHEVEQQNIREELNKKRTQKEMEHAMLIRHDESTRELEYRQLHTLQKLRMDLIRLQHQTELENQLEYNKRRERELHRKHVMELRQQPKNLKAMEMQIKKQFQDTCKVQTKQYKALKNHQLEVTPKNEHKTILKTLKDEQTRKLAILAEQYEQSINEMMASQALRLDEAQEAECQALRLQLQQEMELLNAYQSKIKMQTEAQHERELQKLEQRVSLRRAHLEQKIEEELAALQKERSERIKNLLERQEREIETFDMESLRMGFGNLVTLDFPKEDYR
Particulars: kinase TAOK3; 1 uM in DMSO. In outline: as §1

For experiment [6], the target named is T6, kinases of the scanMAX Kinase assay panel (Homo sapiens, UniProt Q9HBY8).
T6 construct: purchased DiscoverX Co. (contract measurement) scanMAX Kinase assay panel
T6 sequence (Q9HBY8 1-367): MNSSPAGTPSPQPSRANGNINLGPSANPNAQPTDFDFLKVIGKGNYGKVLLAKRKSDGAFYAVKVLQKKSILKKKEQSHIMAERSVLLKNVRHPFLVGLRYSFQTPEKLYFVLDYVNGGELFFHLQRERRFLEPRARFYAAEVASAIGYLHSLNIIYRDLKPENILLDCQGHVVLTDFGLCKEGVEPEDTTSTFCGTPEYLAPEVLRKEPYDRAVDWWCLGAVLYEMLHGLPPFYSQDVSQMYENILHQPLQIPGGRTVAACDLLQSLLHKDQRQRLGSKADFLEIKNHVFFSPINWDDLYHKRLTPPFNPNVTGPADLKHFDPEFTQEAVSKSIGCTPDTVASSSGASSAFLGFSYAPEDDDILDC
Conditions: kinase SGK2; 1 uM in DMSO. In outline: as §1

T1 sequence (P07332 whole entry): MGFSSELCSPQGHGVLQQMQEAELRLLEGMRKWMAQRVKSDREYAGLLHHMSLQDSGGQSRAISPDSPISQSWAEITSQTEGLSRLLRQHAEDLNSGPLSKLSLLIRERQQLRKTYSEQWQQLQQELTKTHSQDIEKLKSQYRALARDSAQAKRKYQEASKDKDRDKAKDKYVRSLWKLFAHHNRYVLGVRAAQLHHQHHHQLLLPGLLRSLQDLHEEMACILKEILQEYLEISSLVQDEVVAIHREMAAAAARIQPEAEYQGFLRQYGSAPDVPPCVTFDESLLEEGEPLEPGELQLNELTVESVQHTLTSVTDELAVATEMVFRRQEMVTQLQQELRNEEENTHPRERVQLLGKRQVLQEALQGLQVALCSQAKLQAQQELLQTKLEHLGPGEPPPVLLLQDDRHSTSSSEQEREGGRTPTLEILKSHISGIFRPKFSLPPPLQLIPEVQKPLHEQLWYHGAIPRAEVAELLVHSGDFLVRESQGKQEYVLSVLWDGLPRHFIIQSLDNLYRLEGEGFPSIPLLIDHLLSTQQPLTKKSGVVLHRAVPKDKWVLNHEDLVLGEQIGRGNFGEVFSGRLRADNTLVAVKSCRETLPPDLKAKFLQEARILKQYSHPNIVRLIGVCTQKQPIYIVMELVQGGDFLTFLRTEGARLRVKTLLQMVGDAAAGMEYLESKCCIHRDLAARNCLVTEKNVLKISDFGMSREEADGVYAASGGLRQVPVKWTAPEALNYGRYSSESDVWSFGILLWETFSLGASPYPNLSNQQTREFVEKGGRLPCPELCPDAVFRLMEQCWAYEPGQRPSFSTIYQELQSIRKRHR
T4 sequence (Q99558 whole entry): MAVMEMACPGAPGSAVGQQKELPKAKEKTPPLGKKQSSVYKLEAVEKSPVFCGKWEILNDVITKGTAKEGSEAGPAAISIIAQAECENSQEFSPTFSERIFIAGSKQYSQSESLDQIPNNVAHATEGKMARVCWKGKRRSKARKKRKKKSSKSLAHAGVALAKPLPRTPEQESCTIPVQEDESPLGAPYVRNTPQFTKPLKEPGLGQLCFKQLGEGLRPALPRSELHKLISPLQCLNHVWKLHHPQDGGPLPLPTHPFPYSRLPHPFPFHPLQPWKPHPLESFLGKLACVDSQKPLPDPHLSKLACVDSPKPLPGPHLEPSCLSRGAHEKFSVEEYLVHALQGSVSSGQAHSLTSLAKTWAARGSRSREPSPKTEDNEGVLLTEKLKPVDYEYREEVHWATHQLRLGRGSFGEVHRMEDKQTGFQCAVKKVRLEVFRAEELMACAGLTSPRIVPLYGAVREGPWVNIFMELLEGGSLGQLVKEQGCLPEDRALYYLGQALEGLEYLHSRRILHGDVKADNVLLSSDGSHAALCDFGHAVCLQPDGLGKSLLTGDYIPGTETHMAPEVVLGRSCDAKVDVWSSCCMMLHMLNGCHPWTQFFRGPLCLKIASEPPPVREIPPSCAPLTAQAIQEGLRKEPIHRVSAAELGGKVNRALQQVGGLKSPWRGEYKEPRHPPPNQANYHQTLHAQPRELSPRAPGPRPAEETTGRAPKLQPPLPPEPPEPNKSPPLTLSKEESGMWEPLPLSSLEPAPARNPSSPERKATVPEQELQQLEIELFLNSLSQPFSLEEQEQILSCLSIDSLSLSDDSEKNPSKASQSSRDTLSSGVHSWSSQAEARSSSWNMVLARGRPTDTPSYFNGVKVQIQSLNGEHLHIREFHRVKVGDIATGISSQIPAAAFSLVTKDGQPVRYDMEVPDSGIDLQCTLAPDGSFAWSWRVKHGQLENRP

As to `CNc1nc(Nc2ccc(C(=O)N3CCOCC3)cc2OC)nc2[nH]cc(C#N)c12` [Example 1, 2-((2-methoxy-4-(morpholine-4-carbonyl)phenyl)amino)-4-(methylamino)-7H-pyrrolo[2,3-d]pyrimidine-5-carbonitrile], the remaining binding at 1 µM in experiment [1] was 61%; in experiment [2], 86%; in experiment [3], 96%; in experiment [4], 3.7%; in experiment [5], 81%; in experiment [6], 82%.
`CC1(Nc2nc(Nc3cnn([C@H]4CCN(C5COC5)C[C@@H]4F)c3Cl)nc3[nH]cc(C#N)c23)CC1` [Example 52, 2-((5-chloro-1-((3S,4S)-3-fluoro-1-(oxetane-3-yl)piperidine-4-yl)-1H-pyrazole-4-yl)amino)((1-methylcyclopropyl)amino)-7H-pyrrolo[2,3-d]pyrimidine-5-carbonitrile]: the remaining binding at 1 µM is 1.3% in experiment [1]; 92% in experiment [2]; 89% in experiment [3]; 7.4% in experiment [4]; 8.6% in experiment [5]; 74% in experiment [6].
Take `CCNc1nc(Nc2ccc(C(=O)N3CCC(N4CCOCC4)CC3)cc2OC)nc2[nH]cc(C(F)(F)F)c12` [Example 104, (4-((4-(ethylamino)-5-(trifluoromethyl)-7H-pyrrolo[2,3-d]pyrimidine-2-yl)amino)-3-methoxyphenyl)(4-morpholinopiperidine-1-yl)methanone]: the remaining binding at 1 µM worked out at 36% in experiment [1]; 100% in experiment [2]; 53% in experiment [3]; 16% in experiment [4]; 81% in experiment [5]; 100% in experiment [6].

The values are drawn from patent US11208412B2 (DAEGU-GYEONGBUK MEDICAL INNOVATION FOUNDATION, priority 2017, dated 2021).
